Measured values: patent US20250000876A1, “Novel therapeutic agent for inflammatory disease” (Gachon University of Industry-Academic cooperation …, priority 2020, published 2025)

Columns and labels:
[1] = Hydrodynamic size distribution, potential and polydispersity index (Zetasizer Nano); type: physicochemical
[2] = H2O2 decomposition and O2 production analysis; conditions: after 24 hours, pH 7.4
Procedure: Then, 50 μl of the solution was added to a solution of 100 μL of Ti (SO4)2 containing 1.33 mL of 24% Ti(SO4)2 and 8.33 mL of H2SO4 in 50 mL of deionized water after 24 hours. After the reaction was completed, the absorbance of the solution was measured at 405 nm to evaluate the H2O2 concentration.
We performed H2O2-scavenging effect of AuNPs and intracellular ROS analysis before pro-inflammatory cytokine secretion assay. Specifically, after treatment with Triamcinolone and AuNPs under physiological conditions (pH 7.4), concentration of H2O2 was analyzed.

M1-activated FLS = test: Cytokine expression in FLSs activated with M1 macrophage conditioned medium; type: cell-based, human
Procedure: (§1) To measure cytokine expression, RT-PCR (CFX 384, Bio-Rad, Hercules, CA, USA) was performed according to the manufacturer's protocol. […] Then, total RNA was isolated from cells (5×10^5 cells/well in a total of 6-well plates) using TRIzol (15596018, Thermo Fisher Scientific) and first strand complementary DNA (cDNA) using RT premix (Promega) was synthesized. Reverse transcription conditions were carried out at 45° C. for 60 minutes and at 95° C. for 5 minutes. Briefly, in each final reaction tube, 2 μL of cDNA (1 μg), 1 μL of sense and antisense primer solutions (0.4 μM), 12.5 μL of SYBR Premix Ex Taq (Takara Bio Inc.) and 9.5 μL of dH2O. The cycle threshold (Ct) value was calculated using the CFX96 Real-Time PCR Detection System (Bio-Rad) software, and the comparative Ct method (2ΔΔCt model) was used to calculate the relative fold change of gene expression. It was then normalized to mean GAPDH expression.
Recently, the role of macrophages in inflamed synovial membranes has been of great interest due to the inflammatory effects of these cells during pathogens of RA and OA in joints (A. Kennedy et al., Front. Immunol., 2:52, 2011). The present inventors therefore investigated the stimulation of FLS pro-inflammatory activity by activated M1 macrophage cytokines (from LPS-treated J774 cells to conditioned medium).

[3] = tested on: macrophages treated with TNF-α-activated FLSs medium; test: Macrophage repolarization after TNF-α-activated FLSs medium; type: cell-based
Procedure: as §1
Macrophages of the synovium can stimulate pro-inflammatory FLSs activity by infiltrating inflamed tissues and increasing pro-inflammatory cytokine levels (M. Asif Amin et al., Semin. Immunopathol., 39 (4): 385-393, 2017). For this reason, modulating macrophage differentiation (ie, repolarization) is important in alleviating arthritis disease (J. Kim et al., ACS Nano, 13 (3): 3206-3217, 2019).

CIA-induced mice = test: Collagen-induced arthritis (CIA) model; type: in vivo, DBA/1 mice; conditions: for paw edema and paw score: ankle joint, 48 days
Procedure: DBA/1 mice (male, 4-6 weeks old, body weight 20-25 g) were purchased from Orient Bio (Seoul, Korea) and the mice were subjected to a 12-hour light/dark cycle (lit at 6:30 AM) for 7-14 days. They were placed in a specific pathogen-free environment with temperature and humidity controlled and acclimatized before the experiment. All animal experiments were performed according to the Gachon University Laboratory Animal Care and Use Guide. […] Animals with […] arthritis were randomly assigned to 6 groups (n=6) after the first signs of inflammation were observed on day 27.
The status of RA was assessed visually by grading paw swelling according to the following criteria: 0, no swelling; 1, inflammation and swelling in one toe; 2, more than one toe, but inflammation and swelling throughout the foot; 3, moderate swelling of the entire foot; 4, Severe erythema and swelling of the entire foot and ankle (H. E. Scales, et al., Rheumatology (Oxford) 55 (3): 564-572, 2016). A total score of four paws was recorded for each mouse as the arthritis index. […] Each treatment group was administered twice weekly for 3 weeks, 2 mg/kg or 5 mg/kg condition, and the arthritis index of each group was recorded over time. After 3 weeks of treatment, mice were sacrificed, and limbs were collected and histological analysis was performed.
Histopathology was evaluated to determine the characteristics of RA including macrophage phenotype, synovitis and cartilage destruction. Specifically, on day 48, the mice were sacrificed and the ankle joint was recovered. The […] was fixed in 4% paraformaldehyde at 4° C. for 3 days, transferred to a descaling solution (Sigma), and left on an orbital shaker. Then, the tissue was decalcified at room temperature for 14 days, and the non-calcified ankle joint was embedded in paraffin and then cut into 3 μm using a microtome. For immunofluorescence histochemistry, tissue sections were dewaxed and TNF-α (Abcam, ab1793), IL-1β (Abcam, ab9722), IL-6 (Abcam, ab7737), INF-γ (Novus Biotech, NBP1), CD86 (Invitrogen, 13-0862-82), and Dectin-1 (Abcam, ab140039) were stained with primary antibodies. The secondary antibodies used in the present invention are goat anti-rat Alexa Fluor 488 (Abcam) for INF-γ, goat anti-mouse Alexa Fluor 488 (Abcam) for TNF-α, goat anti-mouse Alexa Fluor 568 for CD86 (Abcam), goat anti-rabbit Alexa Fluor 488 (Abcam) for IL-1β and IL-6 and goat anti-rabbit Alexa Fluor 568 (Abcam) for Dectin-1. The tissue sections were then stained with DAPI mounting solution and observed using a confocal fluorescence microscope (LSM700, Carl Zeiss) and EVOS M7000, Invitrogen. Fluorescence intensity was also quantified using ImageJ, Zen Lite (Zeiss) and Celleste (Invitrogen).

## C[C@]12C=CC(=O)C=C1CC[C@H]1[C@@H]3C[C@@H](O)[C@](O)(C(=O)CO)[C@@]3(C)C[C@H](O)[C@@]12F [Triam, Triamcinolone]
[1]; Example 1, Triam series
  electric potential caused by the surface charge: approached neutral charges
  hydrodynamic size: 75 nm
[2]
  reduction of H2O2 concentration: about 48%
M1-activated FLS; FLSs treated with M1 medium
  level of FLSs pro-inflammatory cytokines (TNF-α, IL-1β and IL-6): effectively reduced
M1-activated FLS; M1-activated FLS
  anti-inflammatory mRNA (IL-4, IL-10 and Arg-1) synthesis: did not induce anti-inflammatory cytokine release
[3]
  M2 response (IL-4, Arg-1 and IL-10 expression): did not induce noticeable M2 marker expression
  inflammatory marker levels (TNF-α, IL-1β and IL-6 expression): decreased significantly
CIA-induced mice; 2 mg/kg
  level of CD86 (M1 marker) in ankle joint: reduced the level of the M1 marker
  level of Dectin-1 (M2 marker) in ankle joint: did not sufficiently restore the level of the M2 marker
  paw edema and paw score: did not show sufficient effect
CIA-induced mice; 5 mg/kg
  level of CD86 (M1 marker) in ankle joint: reduced the level of the M1 marker
  level of Dectin-1 (M2 marker) in ankle joint: did not sufficiently restore the level of the M2 marker
  paw edema and paw score: did not show sufficient effect

## C[C@@H]1C[C@H]2[C@@H]3CCC4=CC(=O)C=C[C@]4(C)[C@@]3(F)[C@@H](O)C[C@]2(C)[C@@]1(O)C(=O)CO [free Dex, dexamethasone]
[1]; Example 9, Dex series
  electric potential caused by the surface charge: neutrally charged
  hydrodynamic size: 125 nm
